Tests used:
[1] = tested on: H1650; assay: Proliferation inhibition experiment, H1650 (NSCLC); format: cell-based; conditions: EGFR Amplification Del19, KRAS WT
Experimental: (§1) • (1) NSCLC: plated at 1500-2500 cells/100 μL in a 96-well low-adsorption plate (Corning, CLS7007-24EA) for 3D cell culture, in which the following cell lines and specific amounts were used: • NSCLC: 2000 cells/100 μL/well • NCI-H292: Cell Bank of the Chinese Academy of Sciences, SCSP-582 • NCI-H322: Cobioer, CBP60134 • NCI-H1650: ATCC, CRL-5883 • NCI-H1975: ATCC, CRL-5908 • SK-MES-1: CoBioer, CBP60152 • NCI-H1703: ATCC, HTB-43 • PC9+hB7H3: constructed as described above • CRC and HNSCC: plated at 1500-2000 cells/100 μL in a 96-well white-bottom plate (NUNC, 136101) for 2D cell culture, in which the following cell lines and specific amounts were used: • CRC: 1500 cells/100 μL/well • CCK-81: CoBioer, CBP60581 • HT-55: CoBioer, CBP60012 • H508: CoBioer, CBP60795 • LS180: CoBioer, CBP60034 • HNSCC: 1500 cells/100 μL/well • TE-1: CoBioer, CBP60655 • Colo680: CoBioer, CBP60452. (2) The antibody molecules prepared in advance by dilution were added to the corresponding cell well plate, mixed well, and cultured in an incubator at 37° C. with 5% CO2 for 5 days. • (3) After 5 days of continuous culture for proliferation inhibition assay, the Cell-Titer reagent (Promega, G7572) prepared in advance was added to cell wells, the plate was left to stand at room temperature for 15-25 min in the dark, and then CRC and HNSCC cells were directly detected by a multimode microplate reader (Molecular Devices, Spectra MAXi3). • (4) NSCLC: Cell-Titer and the cell mixture were transferred to a 96-well white-bottom plate (NUNC, 136101) and detected by a multimode microplate reader (Molecular Devices, Spectra MAXi3).

[2] = tested on: H1975; assay: ADCC report assay, H1975; format: cell-based; conditions: EGFR L858R T790M, KRAS WT, effector/target 10:1, 20 h
Experimental: (§2) In the ADCC report assay, ADCC effector cells ((Promega, G7102)) are engineered cells in which FcRIIIa (V158) receptor is overexpressed into Jurkat T cells, which rapidly respond to ADCC through the NFAT-RE driving element within the Jurkat T cells.
(§3) • (1) Tumor cells (cell lines listed in Table 3) and ADCC effector cells (Promega, G7102) were mixed well (1.5E4 cells: 1.5E5 cells/well/100 μL (1.5E5: 1.5E6 cells/mL)) according to an effector/target ratio (10:1), and added to a 96-well white plate (NUNC, 136101). • (2) The antibody molecules prepared in advance by dilution were added to the corresponding cell well plates, mixed well, and cultured at 37° C. with 5% CO2 for 20 h. • (3) The Bio-glo reagent (Promega, G755B) prepared in advance was added to the cell well plate, the plate was left to stand at room temperature for 10-15 min in the dark, and then the cells were detected by a multimode microplate reader (Molecular Devices, Spectra MAXi3).

[3] = tested on: H1703; assay: ADCC report assay, H1703; format: cell-based; conditions: EGFR Amplification, KRAS WT, effector/target 10:1, 20 h
Experimental: as §2, §3

[4] = tested on: H1650; assay: ADCC report assay, H1650; format: cell-based; conditions: EGFR Amplification Del19, KRAS WT, effector/target 10:1, 20 h
Experimental: as §2, §3

[5] = tested on: H358; assay: ADCC report assay, H358; format: cell-based; conditions: EGFR WT, KRAS G12C, effector/target 10:1, 20 h
Experimental: as §2, §3

[6] = tested on: H292; assay: Proliferation inhibition experiment, H292 (NSCLC); format: cell-based; conditions: EGFR WT, KRAS WT
Experimental: as §1

[7] = tested on: H292; assay: ADCC report assay, H292; format: cell-based; conditions: EGFR WT, KRAS WT, effector/target 10:1, 20 h
Experimental: as §2, §3

[8] = tested on: SK-MES-1; assay: Proliferation inhibition experiment, SK-MES-1 (NSCLC); format: cell-based; conditions: EGFR Amplification, KRAS WT
Experimental: as §1

[9] = tested on: SK-MES-1; assay: ADCC report assay, SK-MES-1; format: cell-based; conditions: EGFR Amplification, KRAS WT, effector/target 10:1, 20 h
Experimental: as §2, §3

[10] = tested on: Colo-680N; assay: Proliferation inhibition experiment, Colo-680N (HNSCC); format: cell-based; conditions: EGFR WT, KRAS WT
Experimental: as §1

[11] = tested on: SK-MES-1 tumor-bearing mice; assay: Anti-tumor efficacy in SK-MES-1 tumor-bearing mice, 1 mg/kg single dose; format: in vivo; conditions: SK-MES-1, Balb/c Nude mice, day 24; for Tumor volume (mm^3): 1 mg/kg i.p. single dose on day 6; for Complete response rate / Tumor growth inhibition (%): 1 mg/kg i.p. single dose; for Complete response rate: 7 mice per group; for Tumor growth inhibition (%): vs h-IgG 1 mg/kg
Description: SPF female Balb/c Nude mice (purchased from Beijing Vital River Laboratory Animal Technology Co., Ltd.) with certificate No. 110011211108966881 were used in the experiment.
SK-MES-1 cells were routinely subcultured for the subsequent in-vivo experiment. The cells were collected by centrifugation. Then the SK-MES-1 cells were resuspended in an equal-proportion mixture of PBS (1×) and Matrigel Matrix (Corning) to prepare a cell suspension with a cell concentration of 20×10^6 cells/mL. On day 0, 0.2 mL of the cell suspension was taken and subcutaneously inoculated to the right abdominal area of Balb/c Nude mice to establish SK-MES-1 tumor-bearing mouse models.
Six days after the tumor cell inoculation, the tumor volume in each mouse was measured. The mice were grouped (with 7 mice in each group).
Administration was performed once on day 6 after the inoculation of SK-MES-1 cells. Mice were monitored for tumor volume and body weight twice a week.
Tumor volume measurement: The maximum length of major axis (L) and maximum length of minor axis (W) of tumors were measured with a vernier caliper, and tumor volume was calculated by the following formula: V=L×W^2/2. The mice were weighed using an electronic balance.

[12] = tested on: H1703; assay: Proliferation inhibition experiment, H1703 (NSCLC); format: cell-based; conditions: H1703, EGFR Amplification, KRAS WT
Experimental: as §1

Substance: zalutumumab [Zalu mAb]
- Max inhibition (%) Mean ± SD [1]: 26.8 ± 2.6%
- EC50 [2]: 0.029 nM
- EC50 [3]: 0.007 nM
- EC50 [4]: 0.021 nM
- EC50 [5]: 0.004 nM
- Max inhibition (%) Mean ± SD [6]: 79.4 ± 1.6%
- EC50 [7]: 0.009 nM
- Max inhibition (%) Mean ± SD [8]: 67.8 ± 4.1%
- EC50 [9]: 0.011 nM
- Max inhibition (%) Mean ± SD [10]: 24.9 ± 1.1%
- Tumor volume (mm^3) [11]: 23 mm^3
- Complete response rate [11]: 2/7
- Tumor growth inhibition (%) [11]: 145%
- Max inhibition (%) Mean ± SD [12]: 45.6 ± 3.8%

Substance: amivantamab [JNJ372]
- Max inhibition (%) Mean ± SD [1]: 31.0 ± 1.4%
- IC50 ([1]; 3D culture, 5 days): 20.6 nM
- EC50 [2]: 0.063 nM
- EC50 [3]: 0.119 nM
- EC50 [4]: 0.102 nM
- EC50 [5]: 0.018 nM
- Max inhibition (%) Mean ± SD [6]: 64.5 ± 2.5%
- IC50 ([6]; 3D culture, 5 days): 141 nM
- EC50 [7]: 0.083 nM
- Max inhibition (%) Mean ± SD [8]: 66.1 ± 3.7%
- IC50 ([8]; 3D culture, 5 days): 9.82 nM
- EC50 [9]: 0.144 nM
- Max inhibition (%) Mean ± SD [10]: 26.5 ± 2.2%
- IC50 ([10]; 2D culture, 5 days): 25.5 nM
- Tumor volume (mm^3) [11]: 87 mm^3
- Complete response rate [11]: 0/7
- Tumor growth inhibition (%) [11]: 122%
- Max inhibition (%) Mean ± SD [12]: 44.3 ± 3.4%
- IC50 ([12]; 3D culture, 5 days): 0.7 nM
